Data on 17 compounds can be found in patent publication US20080125432A1 (Devgen NV, priority 2004, published 2008).

For orientation: EC50 means the concentration that produces a half-maximal response. For orientation: IC50 means the concentration at which inhibition is half-maximal.

In test [1] the target is T1, human Kv4.3 (Homo sapiens, UniProt Q9UK17).
T1 construct: expressed in transfected cells; host or cells: transgenic C. elegans strain UG1755 (N2 injected with plasmid pGV8, integrated array)
T1 sequence (Q9UK17 1-655): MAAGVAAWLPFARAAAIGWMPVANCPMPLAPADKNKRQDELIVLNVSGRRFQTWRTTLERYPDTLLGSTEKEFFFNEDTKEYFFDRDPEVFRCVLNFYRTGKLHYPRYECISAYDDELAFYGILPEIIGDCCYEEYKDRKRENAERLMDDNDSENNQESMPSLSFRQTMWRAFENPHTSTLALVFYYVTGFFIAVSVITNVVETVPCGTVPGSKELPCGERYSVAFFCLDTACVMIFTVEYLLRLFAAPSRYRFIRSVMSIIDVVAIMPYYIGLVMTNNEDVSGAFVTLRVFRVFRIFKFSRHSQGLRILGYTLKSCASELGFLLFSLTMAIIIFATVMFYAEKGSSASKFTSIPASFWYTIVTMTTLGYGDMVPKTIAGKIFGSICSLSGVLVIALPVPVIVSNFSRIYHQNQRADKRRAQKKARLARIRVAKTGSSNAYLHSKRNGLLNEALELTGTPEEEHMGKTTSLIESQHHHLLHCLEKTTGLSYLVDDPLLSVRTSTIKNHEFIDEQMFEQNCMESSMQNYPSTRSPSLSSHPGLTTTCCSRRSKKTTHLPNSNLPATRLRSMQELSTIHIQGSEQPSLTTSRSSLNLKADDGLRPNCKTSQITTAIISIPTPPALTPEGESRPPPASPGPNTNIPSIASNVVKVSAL
Description: C. elegans based high-throughput screen for Kv4.3 modulators (pharynx pumping, Calcein AM uptake), transgenic strain UG1755. In kind it is in vivo. The following applies: for Ratio N2/Kv4.3: EC50 on N2 divided by EC50 on the Kv4.3 expressing strain, cut-off 1.8; for EC50: transgenic strain UG1755 expressing human Kv4.3, read-out: EC50 (μM) Kv4.3 worm. An excerpt: A C. elegans based high-throughput screen for Kv4.3 modulators has been used to establish an in vivo SAR (structure-activity relationships: the effect of chemical structure on biological activity) on Kv4.3 for the compounds according to the present invention.
This assay has employed a stable transgenic C. elegans strain that functionally expressed human Kv4.3 in the pharynx and a visible selection GFP maker in body-wall muscle.
The pharynx is the feeding organ of C. elegans and contracts rhythmically 3-4 times per second. The pharynx contraction is controlled by the nervous system via action potentials similar to the human myocyte and can thus be used to study human ion channel physiology in vivo in C. elegans.
Introducing the human Kv4.3 channel into the C. elegans pharynx influences the C. elegans action potential in a characteristic fashion. The additional number of potassium channels increases potassium ion efflux, enhances re-polarization and thereby shortens the action potential duration. […] The shortened action potentials of the C. elegans pharynx resulting from expression of human Kv4.3, changes the pharynx contraction-relaxation cycle and consequently reduces the pumping/feeding in these transgenic animals. This change of pumping is an end-point amenable to high-throughput screening technology. The pumping end-point can be technically translated into a high-throughput read-out by the use of a pro-fluorescent dye. The pro-fluorescent dye is taken up by C. elegans depending on its pumping activity and converted into a fluorescent dye by enzymes located in its intestines. After a defined incubation period, the change of fluorescence intensity in the intestine can be measured with a plate reader.
(§1) The screening of the compounds according to the present invention has been performed in the C. elegans based high-throughput screen for Kv4.3 modulators described above. The method for testing the activity on human Kv4.3 of the compounds according to the invention with C. elegans strains expressing human Kv4.3 for their activity is the same as the method described in WO 03/097682. The method for testing the compounds on wild-type C. elegans strains not expressing human Kv4.3 is the same as the method described in WO 00/63427. Briefly, UG1755 animals have been grown in large numbers and staged young adults (no or only few eggs inside the uterus) have been harvested on the day of screening. Approximately 125 animals in 80 μl buffer have been dispensed per well of a “U shaped 96-well compound plate The compound plate contained already compound material at a final concentration of 30 μM in 0.3% DMSO. After one hour incubation 10 μl of the fluorescent label Calcein AM (CAM) have been added to achieve a final concentration of 5 μM CAM and 0.8% DMSO. After another four hours of incubation at 20° C., the drinking of C. elegans animals (or the “reaction 8 measured by the uptake of CAM) has been stopped by adding 10 μl of a 60 μM ivermectin solution. The fluorescence intensity (counts per second) has been measured 40 minutes after adding ivermectin with the Wallac plate reader at a wavelength of 535 nm (after excitation at 485 nm).
The active compounds have been identified and confirmed by dose-response analysis. An EC50 has been calculated and the results are listed under Table 3. Dose-response curves have been obtained at concentrations of 30 μM. EC50 has been calculated using XLfit 2.09 software package.

Test [2] has as its system C. elegans wild-type strain N2. The test is described as follows: Same C. elegans pumping assay format using wild-type strain N2. In kind it is in vivo. The following applies: read-out: EC50 (μM) Wild type worm N2.
Text: as §1
These compounds have been also tested in the same assay format using a C. elegans wild-type strain N2 and the corresponding EC50 has been calculated. The ratio of the EC50s obtained for a compound on the two strains (transgenic expressing human Kv4.3 and wild-type) gives an indication on whether said compound is acting on human Kv4.3. […]

The target in test [3] is T2, human Kv4.3/KChIP2.2 potassium channel (Homo sapiens, UniProt Q9UK17).
T2 construct: expressed in transfected cells
T2 sequence (Q9UK17 1-655): T1 sequence (Q9UK17 1-655)
The test is described as follows: Whole cell patch clamp, CHO-K1 cells stably expressing human Kv4.3/KChIP2.2. Format: cell-based. Particulars: Kv4.3 mediated current, charge; patch clamp; read-out: Kv4.3 charge IC50. (In general: The patch-clamp technique gives a direct electrical read-out from membranes.)

Like-named read-outs stand apart in the source and are kept apart here. Some results are limits rather than exact numbers.

For the compound `C[C@@H](NC(=O)c1csc(Nc2ccc(F)cc2)n1)c1ccc([N+](=O)[O-])cc1` [Compound 36, 2-(4-fluoro-phenylamino)-thiazole-4-carboxylic acid (R)-1-(4-nitro-phenyl)ethyl amide], in test [1], the “Ratio N2/Kv4.3” value was 2.0 and the EC50 was 22.7 µM. In addition, the EC50 in test [2] (Caenorhabditis elegans) came out at 45 µM.

As for `Cc1nc(Nc2ccc(F)cc2)sc1C(=O)N[C@@H](C)c1ccc2ccccc2c1` [Compound 15, 2-(4-fluoro-phenylamino)-4-methyl-thiazole-5-carboxylic acid (S)-1-(naphthalen-2-yl)ethyl amide], in test [1], the “Ratio N2/Kv4.3” value is 2.4 and the EC50 is 10.1 µM. For the same compound, in test [2] (Caenorhabditis elegans), the EC50 was 24 µM.

As for `O=C(N[C@H]1CCCC[C@@H]1OCc1ccccc1)c1csc(Nc2ccc(Cl)cc2)n1` [Compound 41, 2-(4-chloro-phenylamino)-thiazole-4-carboxylic acid (1S,2S)-2-(benzyloxycyclohex-1-yl) amide], in test [1], the “Ratio N2/Kv4.3” value is reported as 2.2 and the 50% effective concentration (EC50) was 22 µM. In addition, the EC50 in test [2] amounted to 48 µM.

For `O=C(N[C@@H]1CCC[C@H]1OCc1ccccc1)c1csc(Nc2ccccc2)n1` [Compound 48, 2-phenylaminothiazole-4-carboxylic acid (1R,2R)-2-(benzyloxycyclopent-1-yl) amide], the IC50 in test [3] turned out to be 2.47 µM. Further, in test [1], the “Ratio N2/Kv4.3” value was 14.9 and the 50% effective concentration (EC50) is 2 µM. Besides, the EC50 in test [2] (Caenorhabditis elegans) amounted to 29.8 µM.

Take `COc1ccc(Cl)cc1Nc1nc(C(=O)N[C@@H]2CCCC[C@H]2OCc2ccccc2)cs1` [Compound 51, 2-(5-chloro-2-methoxy-phenylamino)-thiazole-4-carboxylic acid (1R,2R)-2-(benzyloxycyclohex-1-yl) amide]: in test [1], the “Ratio N2/Kv4.3” value is more than 1.8 and the EC50 is 17 µM. Besides, in test [2] (Caenorhabditis elegans), the EC50 was more than 30 µM.

Consider `Cc1nc(Nc2ccc(Br)cc2)sc1C(=O)NCc1ccc([N+](=O)[O-])cc1` [Compound 23, 2-(4-bromo-phenylamino)-4-methyl-thiazole-5-carboxylic acid 4-nitro-benzylamide], for which the IC50 in test [3] worked out at 0.55 µM. Moreover, in test [1], the “Ratio N2/Kv4.3” value is reported as 2.8 and the half-maximal effective concentration (EC50) was 14.6 µM. Further, the EC50 in test [2] (Caenorhabditis elegans) came out at 41 µM.

Take `O=C(N[C@@H]1CCC[C@H]1OCc1ccccc1)c1csc(Nc2ccc(Cl)cc2)n1` [Compound 40, 2-(4-chloro-phenylamino)-thiazole-4-carboxylic acid (1R,2R)-2-(benzyloxycyclopent-1-yl) amide]: in test [3], the IC50 amounted to 3.46 µM. Also, in test [1], the “Ratio N2/Kv4.3” value is given as more than 2.5 and the EC50 was 12.1 µM. Besides, in test [2], the concentration for a half-maximal effect (EC50) is more than 30 µM.

As for `Cc1nc(Nc2ccc(Br)cc2)sc1C(=O)NCc1ccccc1` [Compound 20, 2-(4-bromo-phenylamino)-4-methyl-thiazole-5-carboxylic acid benzylamide], in test [3], the IC50 worked out at 1.72 µM. Besides, in test [1], the “Ratio N2/Kv4.3” value is reported as more than 2.3 and the EC50 was 25 µM. For the same compound, the EC50 in test [2] (Caenorhabditis elegans) was more than 60 µM.

Take `O=C(N[C@@H]1CCCC[C@H]1OCc1ccccc1)c1csc(Nc2ccc(F)cc2)n1` [Compound 38, 2-(4-fluoro-phenylamino)-thiazole-4-carboxylic acid (1R,2R)-2-(benzyloxycyclohex-1-yl) amide]: the “Ratio N2/Kv4.3” value in test [1] is listed as 2.5. Further, the EC50 in test [1] is 17.3 µM; in test [2] (Caenorhabditis elegans), 44 µM.

For `O=C(N[C@@H]1CCC[C@H]1OCc1ccccc1)c1csc(Nc2ccc(F)cc2)n1` [Compound 37, 2-(4-fluoro-phenylamino)-thiazole-4-carboxylic acid (1R,2R)-2-(benzyloxycyclopent-1-yl) amide], in test [1], the “Ratio N2/Kv4.3” value is 3.8 and the EC50 was 6 µM. The EC50 in test [2] (Caenorhabditis elegans) was found to be 23 µM.

In the case of `Cc1cc(C)cc(Nc2nc(C(=O)N[C@H]3CCCC[C@@H]3OCc3ccccc3)cs2)c1` [Compound 46, 2-(3,5-dimethyl-phenylamino)-thiazole-4-carboxylic acid (1S,2S)-2-(benzyloxycyclohex-1-yl) amide], in test [1], the “Ratio N2/Kv4.3” value is recorded as 2.8 and the EC50 was 14 µM. Further, the EC50 in test [2] (Caenorhabditis elegans) amounted to 39 µM.

`Cc1cc(C)cc(Nc2nc(C(=O)N[C@@H]3CCC[C@H]3OCc3ccccc3)cs2)c1` [Compound 45, 2-(3,5-dimethyl-phenylamino)-thiazole-4-carboxylic acid (1R,2R)-2-(benzyloxycyclopent-1-yl)-amide]: in test [1], the “Ratio N2/Kv4.3” value is listed as 28.0 and the EC50 was 1.3 µM. The EC50 in test [2] (Caenorhabditis elegans) was determined as 37 µM.

`Cc1nc(Nc2ccc(Br)cc2)sc1C(=O)NCc1cc(C(F)(F)F)cc(C(F)(F)F)c1` [Compound 24, 2-(4-bromo-phenylamino)-4-methyl-thiazole-5-carboxylic acid 3,5-bis-trifluoromethyl-benzylamide]: in test [1], the “Ratio N2/Kv4.3” value is more than 1.7. Moreover, the EC50 in test [1] is 17.1 µM; in test [2] (Caenorhabditis elegans) it was more than 30 µM.

With `CCCN(Cc1ccc([N+](=O)[O-])cc1)C(=O)c1csc(Nc2ccc(Cl)cc2)n1` [Compound 42, 2-(4-chloro-phenylamino)-thiazole-4-carboxylic acid (4-nitro-benzyl)-propyl-amide], in test [1], the “Ratio N2/Kv4.3” value is 2.0 and the EC50 was 21.4 µM. Besides, in test [2] (Caenorhabditis elegans), the EC50 amounted to 43 µM.

Consider `COC[C@H](Cc1ccccc1)NC(=O)c1csc(Nc2cc(C)cc(C)c2)n1` [Compound 44, 2-(3,5-dimethyl-phenylamino)-thiazole-4-carboxylic acid (S)-(1-methoxymethyl-2-phenyl-ethyl)-amide], for which the “Ratio N2/Kv4.3” value in test [1] is 3.5. In addition, the EC50 in test [1] was 11.5 µM; in test [2] (Caenorhabditis elegans), 39.5 µM.

With `Cc1nc(Nc2ccc(Br)cc2)sc1C(=O)N[C@H](C)c1ccc([N+](=O)[O-])cc1` [Compound 22, 2-(4-bromo-phenylamino)-4-methyl-thiazole-5-carboxylic acid (R)-1-(4-nitrophenyl)ethyl amide], in test [1], the “Ratio N2/Kv4.3” value is listed as more than 2.6 and the EC50 is 11.7 µM. Moreover, the concentration giving a half-maximal response (EC50) in test [2] (Caenorhabditis elegans) is more than 30 µM.

Consider `Cc1cccc(C)c1Nc1nc(C(=O)N[C@H](C)c2ccc([N+](=O)[O-])cc2)cs1` [Compound 43, 2-(2,6-dimethyl-phenylamino)-thiazole-4-carboxylic acid (R)-1-(4-nitro-phenyl)ethyl amide], for which, in test [1], the “Ratio N2/Kv4.3” value is 1.8 and the EC50 is 18.9 µM. For the same compound, the EC50 in test [2] (Caenorhabditis elegans) was 35 µM.
